Laboratory results: patent publication US20190374533A1, “COMPOUNDS AND METHODS FOR INHIBITING NHE-MEDIATED ANTIPORT IN THE TREATMENT OF DISORDERS ASSOCIATED WITH FLUID RETENTION OR SALT OVERLOAD AND GASTROINTESTINAL TRACT DISORDERS” (Ardelyx, Inc., priority 2008, published 2019)
Structures can show the parent of a compound that is named as a salt.

Assays:
[1] = tested on: absorption of sodium from the intestinal lumen; experiment: Inhibition of intestinal sodium absorption in rats; type: in vivo, rat; conditions: Sprague Dawley rats, 0.1 mg/kg oral gavage, 13-hours post-dose
Method: Urinary sodium excretion and fecal form were measured to assess the ability of selected example compounds to inhibit the absorption of sodium from the intestinal lumen. Eight-week old, male, Sprague Dawley rats were purchased from Envigo (Livermore, Calif.), were housed 2 per cage and acclimated for at least 48 hours before study initiation. Animals were fed Harlan Teklad Global TD.160470 rodent chow (Maddison, Wis.), standard laboratory rodent chow Harlan Teklad Global 2018 with the addition of 0.4% inorganic phosphorous. […] At 13-hours post-dose, urine samples were collected and fecal form was assessed. In addition, the weight of food consumed over the 13-hour period was measured and recorded. Fecal forms were scored according to a common scale associated with increasing fecal water to the wettest observation in the cage's collection funnel (1, normal pellet; 2, pellet adhering to sides of collection funnel due to moisture; 3, loss of normal pellet shape: 4, complete loss of shape with a blotting pattern; 5, liquid fecal streams evident). Fecal form score (FFS) was calculated for each group as the median of each individual rat's FFS within the group and reported in Table 12. Fecal samples were dried using a lyophilizer for at least 3 days, following which dry weight was recorded and fecal fluid content was calculated based on the difference between the wet and dry stool weights. […]

[2] = tested on: absorption of sodium from the intestinal lumen; experiment: Inhibition of intestinal sodium absorption in mice; type: in vivo, mouse; conditions: CD-1 mice, 15 mg/kg oral gavage twice daily for 3 days
[3] = target: T1, NHE3 (Homo sapiens, UniProt P48764); experiment: Sustained inhibition of apical acid secretion in human organoid monolayer cell cultures (ileum); type: cell-based; conditions: 1 μM apical, dosed day 6, apical media pH day 8
T1 construct: due to the increase in NHE3 expression after differentiation; endogenous in cells; host or cells: human ileum / duodenum organoid-derived monolayers
T1 sequence (P48764 26-834): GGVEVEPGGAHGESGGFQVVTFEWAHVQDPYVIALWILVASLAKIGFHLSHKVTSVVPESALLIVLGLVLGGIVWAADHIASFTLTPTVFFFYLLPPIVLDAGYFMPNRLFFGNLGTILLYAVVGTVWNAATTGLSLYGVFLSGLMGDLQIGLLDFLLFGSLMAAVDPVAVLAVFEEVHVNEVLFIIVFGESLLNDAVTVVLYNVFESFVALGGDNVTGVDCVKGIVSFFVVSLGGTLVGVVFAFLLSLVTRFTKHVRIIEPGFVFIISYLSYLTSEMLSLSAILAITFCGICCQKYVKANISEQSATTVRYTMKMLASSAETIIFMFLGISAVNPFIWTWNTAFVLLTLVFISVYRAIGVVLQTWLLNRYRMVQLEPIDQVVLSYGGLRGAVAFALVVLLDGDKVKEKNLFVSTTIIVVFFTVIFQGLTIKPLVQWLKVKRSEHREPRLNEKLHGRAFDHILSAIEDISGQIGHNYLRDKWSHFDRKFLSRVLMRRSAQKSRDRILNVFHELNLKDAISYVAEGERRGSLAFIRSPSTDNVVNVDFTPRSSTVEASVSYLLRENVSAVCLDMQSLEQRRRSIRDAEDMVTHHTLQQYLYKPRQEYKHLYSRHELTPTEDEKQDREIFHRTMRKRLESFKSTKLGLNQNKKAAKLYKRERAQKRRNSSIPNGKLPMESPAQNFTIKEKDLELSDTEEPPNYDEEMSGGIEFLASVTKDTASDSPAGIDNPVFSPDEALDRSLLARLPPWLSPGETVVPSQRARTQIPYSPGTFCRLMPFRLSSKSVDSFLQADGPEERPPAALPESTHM
Method: Basal media (BM) consisted of advanced DMEM/F12 containing 10 mM HEPES (Invitrogen, 15630-080), 1:100 Glutamax (Invitrogen, 35050-061), and 1:100 penicillin/streptomycin (Invitrogen, 15140-122). […] Growth factors used included 50 ng per mL mouse EGF (Peprotech, 315-09), 100 ng per mL mouse noggin (Peprotech, 250-38), 500 ng per mL human R-spondin 1 (R&D, 4645-RS), 100 ng per mL mouse Wnt-3a (R&D, 1324-WN), 20 μM Y-27632 (Tocris, 1254), 10 mM nicotinamide (Sigma, N0636), 500 nM A83-01 (Tocris, 2939), 10 μM SB202190 (Tocris, 1264). Transwells were 0.4 μm pore polyester membrane 24-well Transwell inserts (Corning). Cultures were incubated at 37° C. in 5% CO2.
Human ileum organoids were cultured in WENRNAS (Wnt, EGF, noggin. R-spondin1. Nicotinamide. A83-01, SB202190) and typically grown for 7-12 days before being used to plate monolayer cultures. On day 0, organoid cultures embedded in Matrigel were treated with TrypLE Express to break organoids into small pieces and/or single cells. […]
Each human ileum monolayer culture well was washed twice with fresh SBM on the apical side on day 6 before compound dosing. […] On day 8, apical media pH was measured by pH electrode, to determine the ability of example compounds to produce sustained inhibition of NHE3 activity in a human monolayer culture system by preventing proton secretion into the apical compartment.

[4] = day 3, normalized to dietary sodium intake

SMILES	Urinary Na (% of Vehicle, out/in) ([1]; normalized to dietary sodium intake)	FFS (1-5) ([1]; fecal form score, group median)	Fecal fluid content (Δ from vehicle) ([2]; day 3)	Fecal Na Excretion (% of vehicle) [2, 4]	Urinary Na Excretion (% of vehicle) [2, 4]	% inhibition (ileum) [3]
CN1Cc2c(Cl)cc(Cl)cc2[C@H](c2cccc(S(=O)(=O)NCCOCCOCCNC(=O)Nc3ccc(NC(=O)NCCOCCOCCNS(=O)(=O)c4cccc([C@@H]5CN(C)Cc6c(Cl)cc(Cl)cc65)c4)cc3)c2)C1 (single isomer, unassigned) [Example 203, (S or R)—N,N′-(2,2′-(2,2′-(2,2′-(1,4-phenylenebis(azanediyl))bis(oxomethylene)bis(azanediyl)bis(ethane-2,1-diyl))bis(oxy)bis(ethane-2,1-diyl))bis(oxy)bis(ethane-2,1-diyl))bis(3-((S or R)-6,8-dichloro-2-methyl-1,2,3,4-tetrahydroisoquinolin-4-yl)benzenesulfonamide) bis-hydrochloride salt]	C (<40%)	3	C (>10)	C (>200%)	C (<50%)	
CN1Cc2c(Cl)cc(Cl)cc2[C@H](c2cccc(S(=O)(=O)NCCOCCOCCNC(=O)NCCCCNC(=O)NCCOCCOCCNS(=O)(=O)c3cccc([C@@H]4CN(C)Cc5c(Cl)cc(Cl)cc54)c3)c2)C1 (single isomer, unassigned) [Example 202, (S or R)—N,N′-(10,17-dioxo-3,6,21,24-tetraoxa-9,11,16,18-tetraazahexacosane-1,26-diyl)bis(3-((S)-6,8-dichloro-2-methyl-1,2,3,4-tetrahydroisoquinolin-4-yl)benzenesulfonamide) bis-hydrochloride salt]						C (>70%)
